Laboratory results: PMC5218480 (PLoS ONE, 2017)

System: MV-4-11 cells
Assay: Gene expression microarray analysis (Affymetrix PrimeView) and GSEA
Assay type: cell-based, human
Parameters: RFU PODN (11730768_x_at) / Fold change /veh PODN (11730768_x_at) / RFU LINC00158 (11744669_a_at) / Fold change /veh LINC00158 (11744669_a_at) / RFU DUSP10 (11751237_a_at) / Fold change /veh DUSP10 (11751237_a_at) / RFU ID3 (11757404_x_at) / Fold change /veh ID3 (11757404_x_at) / RFU PLEKHG5 (11737974_s_at) / Fold change /veh PLEKHG5 (11737974_s_at) / RFU LRRC4B (11730491_at) / Fold change /veh LRRC4B (11730491_at) / RFU GIMAP4 (11747438_a_at) / Fold change /veh GIMAP4 (11747438_a_at) / RFU KRT8 (11758183_x_at) / Fold change /veh KRT8 (11758183_x_at) / RFU CNN1 (11734310_a_at) / Fold change /veh CNN1 (11734310_a_at) / RFU VPS37D (11726825_at) / Fold change /veh VPS37D (11726825_at) / RFU C10orf10 (11716522_x_at) / Fold change /veh C10orf10 (11716522_x_at) / RFU KIR2DL2 /// KIR2DL4 /// KIR2DL5A /// KIR2DL5B /// KIR2DS1 /// KIR2DS2 /// KIR2DS3 /// KIR2DS4 /// KIR3DL3 /// KIR3DL3 /// KIR3DS1 (11738374_at) / Fold change /veh KIR2DL2 /// KIR2DL4 /// KIR2DL5A /// KIR2DL5B /// KIR2DS1 /// KIR2DS2 /// KIR2DS3 /// KIR2DS4 /// KIR3DL3 /// KIR3DL3 /// KIR3DS1 (11738374_at) / RFU C1QL1 (11718748_at) / Fold change /veh C1QL1 (11718748_at) / RFU TMPRSS4 (11747572_a_at) / Fold change /veh TMPRSS4 (11747572_a_at) / RFU HAMP (11756126_x_at) / Fold change /veh HAMP (11756126_x_at) / RFU RNFT2 (11725882_a_at) / Fold change /veh RNFT2 (11725882_a_at) / RFU NR4A2 (11747474_a_at) / Fold change /veh NR4A2 (11747474_a_at) / RFU ABCC12 (11746883_a_at) / Fold change /veh ABCC12 (11746883_a_at) / RFU TMEM136 (11760407_x_at) / Fold change /veh TMEM136 (11760407_x_at) / RFU CLDN22 /// WWC2 (11732394_at) / Fold change /veh CLDN22 /// WWC2 (11732394_at) / RFU HLA-DPB1 (11760878_x_at) / Fold change /veh HLA-DPB1 (11760878_x_at) / RFU SPINT1 (11716480_a_at) / Fold change /veh SPINT1 (11716480_a_at) / RFU GAP43 (11754022_s_at) / Fold change /veh GAP43 (11754022_s_at) / RFU A4GNT (11735810_at) / Fold change /veh A4GNT (11735810_at) / RFU PRB3 (11715151_x_at) / Fold change /veh PRB3 (11715151_x_at) / RFU TUBB4B (11761932_at) / Fold change /veh TUBB4B (11761932_at) / RFU CAPN14 (11732068_a_at) / Fold change /veh CAPN14 (11732068_a_at) / RFU TMCC2 (11721928_a_at) / Fold change /veh TMCC2 (11721928_a_at) / RFU IRGQ (11745062_a_at) / Fold change /veh IRGQ (11745062_a_at) / RFU FAM174B (11720279_a_at) / Fold change /veh FAM174B (11720279_a_at) / RFU TMPRSS4 (11748680_a_at) / Fold change /veh TMPRSS4 (11748680_a_at) / RFU FAM212B (11763350_a_at) / Fold change /veh FAM212B (11763350_a_at) / RFU PLEKHG5 (11743358_a_at) / Fold change /veh PLEKHG5 (11743358_a_at) / RFU ZSCAN30 (11745921_a_at) / Fold change /veh ZSCAN30 (11745921_a_at) / RFU CMKLR1 (11741424_a_at) / Fold change /veh CMKLR1 (11741424_a_at) / RFU LOC101060620 /// MAPK8IP1 (11723275_at) / Fold change /veh LOC101060620 /// MAPK8IP1 (11723275_at) / RFU SPTSSB (11747773_x_at) / Fold change /veh SPTSSB (11747773_x_at) / RFU PRSS12 (11739890_at) / Fold change /veh PRSS12 (11739890_at) / RFU BIN1 (11741810_x_at) / Fold change /veh BIN1 (11741810_x_at) / RFU WNT11 (11732464_a_at) / Fold change /veh WNT11 (11732464_a_at) / RFU C10orf10 (11716521_a_at) / Fold change /veh C10orf10 (11716521_a_at) / RFU C5orf56 (11738089_at) / Fold change /veh C5orf56 (11738089_at) / RFU CYB561 (11721691_x_at) / Fold change /veh CYB561 (11721691_x_at) / RFU ANKRD19P (11752326_a_at) / Fold change /veh ANKRD19P (11752326_a_at) / RFU OR2T12 /// OR2T33 /// OR2T8 (11738714_s_at) / Fold change /veh OR2T12 /// OR2T33 /// OR2T8 (11738714_s_at) / RFU VCAN (11748164_a_at) / Fold change /veh VCAN (11748164_a_at) / RFU JSRP1 (11732532_at) / Fold change /veh JSRP1 (11732532_at) / RFU KRTAP10-11 (11738290_x_at) / Fold change /veh KRTAP10-11 (11738290_x_at) / RFU MYO3A (11730013_a_at) / Fold change /veh MYO3A (11730013_a_at) / RFU EBF3 (11725865_a_at) / Fold change /veh EBF3 (11725865_a_at) / RFU CAMK2N1 (11719241_x_at) / Fold change /veh CAMK2N1 (11719241_x_at) / RFU C5orf56 (11738088_a_at) / Fold change /veh C5orf56 (11738088_a_at) / RFU OLFML3 (11715873_a_at) / Fold change /veh OLFML3 (11715873_a_at) / RFU LOC100653217 /// NTM (11731650_a_at) / Fold change /veh LOC100653217 /// NTM (11731650_a_at) / RFU MAPK11 (11762145_a_at) / Fold change /veh MAPK11 (11762145_a_at) / RFU FIZ1 (11724087_x_at) / Fold change /veh FIZ1 (11724087_x_at) / RFU OASL (11726364_x_at) / Fold change /veh OASL (11726364_x_at) / RFU SOX15 (11748057_x_at) / Fold change /veh SOX15 (11748057_x_at) / RFU CD79A (11719716_a_at) / Fold change /veh CD79A (11719716_a_at) / RFU HIST1H1D (11736915_at) / Fold change /veh HIST1H1D (11736915_at) / RFU CASKIN2 (11723855_a_at) / Fold change /veh CASKIN2 (11723855_a_at) / RFU LOC730098 (11760151_x_at) / Fold change /veh LOC730098 (11760151_x_at) / RFU OR4N2 (11742367_at) / Fold change /veh OR4N2 (11742367_at) / RFU PRRT2 (11749266_a_at) / Fold change /veh PRRT2 (11749266_a_at) / RFU SNX32 (11753110_a_at) / Fold change /veh SNX32 (11753110_a_at) / RFU CDHR5 (11726645_a_at) / Fold change /veh CDHR5 (11726645_a_at) / RFU RCAN1 (11760418_a_at) / Fold change /veh RCAN1 (11760418_a_at) / RFU FAM167A (11723789_a_at) / Fold change /veh FAM167A (11723789_a_at) / RFU FAM26E (11764081_at) / Fold change /veh FAM26E (11764081_at) / RFU ISYNA1 (11749810_s_at) / Fold change /veh ISYNA1 (11749810_s_at) / RFU ACY1 (11761880_at) / Fold change /veh ACY1 (11761880_at) / RFU 11764098_at / Fold change /veh 11764098_at / RFU SAMD14 (11745864_x_at) / Fold change /veh SAMD14 (11745864_x_at) / RFU NPB (11741838_a_at) / Fold change /veh NPB (11741838_a_at) / RFU TMPRSS6 (11731388_a_at) / Fold change /veh TMPRSS6 (11731388_a_at) / RFU KRTAP10-2 (11738614_at) / Fold change /veh KRTAP10-2 (11738614_at) / RFU ARHGAP8 /// PRR5-ARHGAP8 (11727945_x_at) / Fold change /veh ARHGAP8 /// PRR5-ARHGAP8 (11727945_x_at) / RFU KRTAP5-7 /// NADSYN1 (11734609_at) / Fold change /veh KRTAP5-7 /// NADSYN1 (11734609_at) / RFU RASL12 (11751679_a_at) / Fold change /veh RASL12 (11751679_a_at) / RFU CDKN2B (11736163_a_at) / Fold change /veh CDKN2B (11736163_a_at) / RFU PRF1 (11729649_at) / Fold change /veh PRF1 (11729649_at) / RFU, ZNF638 /// ZNF638-IT1 / Fold change vs veh, ZNF638 /// ZNF638-IT1 / RFU, PANK3 / Fold change vs veh, PANK3 / RFU, SH3YL1 / Fold change vs veh, SH3YL1 / RFU, ZEB2 / Fold change vs veh, ZEB2 / RFU, NRIP1 / Fold change vs veh, NRIP1 / RFU, PTTG1IP / Fold change vs veh, PTTG1IP / RFU, CAPN2 / Fold change vs veh, CAPN2 / RFU, MED14 / Fold change vs veh, MED14 / RFU, SNORA58 / Fold change vs veh, SNORA58 / RFU, C1orf63 / Fold change vs veh, C1orf63 / RFU, LRRFIP1 / Fold change vs veh, LRRFIP1 / RFU, NDUFAF7 / Fold change vs veh, NDUFAF7 / RFU, SLC12A2 / Fold change vs veh, SLC12A2 / RFU, IBTK / Fold change vs veh, IBTK / RFU, ESF1 / Fold change vs veh, ESF1 / Fold change vs veh, TMEM50B / RFU, TAOK1 / Fold change vs veh, TAOK1 / RFU, ACBD3 / Fold change vs veh, ACBD3 / RFU, TMA16 / Fold change vs veh, TMA16 / RFU, RWDD3 / Fold change vs veh, RWDD3 / RFU, BCAT1 / Fold change vs veh, BCAT1 / RFU, EDEM3 / Fold change vs veh, EDEM3 / RFU, TMEM33 / Fold change vs veh, TMEM33 / RFU, WDR75 / Fold change vs veh, WDR75 / RFU, AHCTF1 / Fold change vs veh, AHCTF1 / RFU, TFRC / Fold change vs veh, TFRC / RFU, ZDHHC17 / Fold change vs veh, ZDHHC17 / RFU, NOM1 / Fold change vs veh, NOM1 / RFU, ARL8B / Fold change vs veh, ARL8B / RFU, ZBTB11 / Fold change vs veh, ZBTB11 / RFU, TAMM41 / Fold change vs veh, TAMM41 / RFU, KIAA1704 /// LOC100996395 / Fold change vs veh, KIAA1704 /// LOC100996395 / RFU, ING1 / Fold change vs veh, ING1 / RFU, TRMT61B / Fold change vs veh, TRMT61B / RFU, FUBP3 / Fold change vs veh, FUBP3 / RFU, TP53 / Fold change vs veh, TP53 / RFU, TNKS2 / Fold change vs veh, TNKS2 / RFU, ZFP14 / Fold change vs veh, ZFP14 / RFU, ACTR2 / Fold change vs veh, ACTR2 / RFU, PPP3R1 / Fold change vs veh, PPP3R1 / RFU, PIK3R1 / Fold change vs veh, PIK3R1 / RFU, HNRNPA1 / Fold change vs veh, HNRNPA1 / RFU, RNF170 / Fold change vs veh, RNF170 / RFU, ZNF28 / Fold change vs veh, ZNF28 / RFU, RNGTT / Fold change vs veh, RNGTT / RFU, OGT / Fold change vs veh, OGT / RFU, BRD1 / Fold change vs veh, BRD1 / RFU, MARS / Fold change vs veh, MARS / RFU, ZNF655 / Fold change vs veh, ZNF655 / RFU, FAHD1 / Fold change vs veh, FAHD1 / RFU, BDP1 / Fold change vs veh, BDP1 / RFU, LRRCC1 / Fold change vs veh, LRRCC1 / RFU, ARID1A / Fold change vs veh, ARID1A / RFU, ZNF146 / Fold change vs veh, ZNF146 / RFU, ZNF330 / Fold change vs veh, ZNF330 / RFU, GPN3 / Fold change vs veh, GPN3 / RFU, C9orf123 / Fold change vs veh, C9orf123 / RFU, N4BP2L2 / Fold change vs veh, N4BP2L2 / RFU, ARFIP1 / Fold change vs veh, ARFIP1 / RFU, FAM179B / Fold change vs veh, FAM179B / RFU, BCL10 / Fold change vs veh, BCL10 / RFU, UHRF1BP1L / Fold change vs veh, UHRF1BP1L / RFU, BET1 / Fold change vs veh, BET1 / RFU, CNOT2 / Fold change vs veh, CNOT2 / RFU, ZNF268 / Fold change vs veh, ZNF268 / Fold change vs veh, ZNF507 / RFU, DGCR2 / Fold change vs veh, DGCR2 / RFU, WDSUB1 / Fold change vs veh, WDSUB1 / Fold change vs veh, HSP90B1 /// MIR3652 / RFU, ADSS / Fold change vs veh, ADSS / RFU, GK / Fold change vs veh, GK / RFU, ZNF148 / Fold change vs veh, ZNF148 / RFU, TAF9 / Fold change vs veh, TAF9 / RFU, SLC1A5 / Fold change vs veh, SLC1A5 / RFU, SLMO2 / Fold change vs veh, SLMO2 / RFU, ABCC4 / Fold change vs veh, ABCC4 / RFU, LOC101060439 /// RAP1B / Fold change vs veh, LOC101060439 /// RAP1B / RFU, RFX7 / Fold change vs veh, RFX7 / RFU, GTPBP10 / Fold change vs veh, GTPBP10 / RFU, CNEP1R1 / Fold change vs veh, CNEP1R1 / RFU, BIVM-ERCC5 /// ERCC5 / Fold change vs veh, BIVM-ERCC5 /// ERCC5 / RFU, ILF3 / Fold change vs veh, ILF3 / RFU 11762660_at / Fold change /veh 11762660_at / RFU VCAN (11757783_s_at) / Fold change /veh VCAN (11757783_s_at) / RFU DDX43 (11728927_at) / Fold change /veh DDX43 (11728927_at) / RFU KRT8 (11758188_x_at) / Fold change /veh KRT8 (11758188_x_at) / RFU NKD1 (11759106_at) / Fold change /veh NKD1 (11759106_at) / RFU SRD5A1 (11742802_a_at) / Fold change /veh SRD5A1 (11742802_a_at) / RFU TPSAB1 /// TPSB2 (11721975_s_at) / Fold change /veh TPSAB1 /// TPSB2 (11721975_s_at) / RFU GSTM3 (11746129_a_at) / Fold change /veh GSTM3 (11746129_a_at) / RFU IL23R (11737362_x_at) / Fold change /veh IL23R (11737362_x_at) / RFU TMEM51 (11727254_a_at) / Fold change /veh TMEM51 (11727254_a_at) / RFU PIWIL2 (11732686_x_at) / Fold change /veh PIWIL2 (11732686_x_at) / RFU ORM1 (11744905_x_at) / Fold change /veh ORM1 (11744905_x_at) / RFU CCDC152 (11743942_at) / Fold change /veh CCDC152 (11743942_at) / RFU ECM1 (11717891_a_at) / Fold change /veh ECM1 (11717891_a_at) / RFU IL23R (11748794_a_at) / Fold change /veh IL23R (11748794_a_at) / RFU TNFAIP8L3 (11732012_x_at) / Fold change /veh TNFAIP8L3 (11732012_x_at) / RFU MBOAT4 (11741988_at) / Fold change /veh MBOAT4 (11741988_at) / RFU 11764193_at / Fold change /veh 11764193_at / RFU TMEM53 (11763286_at) / Fold change /veh TMEM53 (11763286_at) / RFU MAGEB2 (11727129_at) / Fold change /veh MAGEB2 (11727129_at) / RFU TMEM200A (11744735_a_at) / Fold change /veh TMEM200A (11744735_a_at) / RFU CCDC152 (11751479_a_at) / Fold change /veh CCDC152 (11751479_a_at) / RFU FAM211A (11726209_a_at) / Fold change /veh FAM211A (11726209_a_at) / RFU RGS16 (11746705_a_at) / Fold change /veh RGS16 (11746705_a_at) / RFU VCAN (11755009_s_at) / Fold change /veh VCAN (11755009_s_at) / RFU RHOB (11743442_s_at) / Fold change /veh RHOB (11743442_s_at) / RFU RGS16 (11720943_a_at) / Fold change /veh RGS16 (11720943_a_at) / RFU RGS16 (11720944_at) / Fold change /veh RGS16 (11720944_at) / RFU, VPS4B / Fold change vs veh, VPS4B / RFU, CREB1 / Fold change vs veh, CREB1 / RFU, DNAJC13 / Fold change vs veh, DNAJC13 / RFU, GNAQ / Fold change vs veh, GNAQ / RFU, CDK5R1 / Fold change vs veh, CDK5R1 / RFU, ZRANB3 / Fold change vs veh, ZRANB3 / RFU, CUL4A / Fold change vs veh, CUL4A / RFU, CCNY / Fold change vs veh, CCNY / RFU, UFL1 / Fold change vs veh, UFL1 / RFU, COG3 / Fold change vs veh, COG3 / RFU, DIAPH2 / Fold change vs veh, DIAPH2 / RFU, SKA2 / Fold change vs veh, SKA2 / RFU, AFF3 / Fold change vs veh, AFF3 / RFU, LMF1 / Fold change vs veh, LMF1 / RFU, IPO11 / Fold change vs veh, IPO11 / RFU, DFFB / Fold change vs veh, DFFB / RFU, FOXP1 / Fold change vs veh, FOXP1 / RFU, CARD8 / Fold change vs veh, CARD8 / RFU, STRN3 / Fold change vs veh, STRN3 / RFU, ADK / Fold change vs veh, ADK / RFU, RASSF2 / Fold change vs veh, RASSF2 / RFU, WIPF1 / Fold change vs veh, WIPF1 / RFU, LARP1B / Fold change vs veh, LARP1B / RFU, RASA1 / Fold change vs veh, RASA1 / RFU, RB1 / Fold change vs veh, RB1 / RFU, PPFIA1 / Fold change vs veh, PPFIA1 / RFU, MAT2A / Fold change vs veh, MAT2A / RFU, CCT5 / Fold change vs veh, CCT5 / RFU, WDR92 / Fold change vs veh, WDR92 / RFU, CUX1 / Fold change vs veh, CUX1 / RFU, TTC7A / Fold change vs veh, TTC7A / RFU, TMEM135 / Fold change vs veh, TMEM135 / RFU, DEPTOR / Fold change vs veh, DEPTOR / RFU, CPM / Fold change vs veh, CPM / RFU, DNAJB6 / Fold change vs veh, DNAJB6 / RFU, CACNA2D3 / Fold change vs veh, CACNA2D3 / RFU, DTX4 / Fold change vs veh, DTX4 / RFU, TFCP2 / Fold change vs veh, TFCP2 / RFU, GMCL1 /// GMCL1P1 / Fold change vs veh, GMCL1 /// GMCL1P1 / RFU, AEBP2 / Fold change vs veh, AEBP2 / RFU, SNHG1 /// SNORD22 /// SNORD25 /// SNORD26 /// SNORD27 /// SNORD28 /// SNORD29 /// SNORD31 / Fold change vs veh, SNHG1 /// SNORD22 /// SNORD25 /// SNORD26 /// SNORD27 /// SNORD28 /// SNORD29 /// SNORD31 / Fold change (Aza/veh), C12orf56 (ProbeSet 11735607_a_at) / Fold change (ACY-1035/veh), C12orf56 (ProbeSet 11735607_a_at) / Fold change (Aza/veh), FGFR1OP (ProbeSet 11751329_s_at) / Fold change (ACY-1035/veh), FGFR1OP (ProbeSet 11751329_s_at) / Fold change (Aza/veh), VPS36 (ProbeSet 11739960_a_at) / Fold change (ACY-1035/veh), VPS36 (ProbeSet 11739960_a_at) / RFU SYPL1 (11715823_x_at) / Fold change /veh SYPL1 (11715823_x_at) / RFU IGFBP7 (11715501_s_at) / Fold change /veh IGFBP7 (11715501_s_at) / RFU REEP3 (11722064_at) / Fold change /veh REEP3 (11722064_at) / RFU IGLL1 (11728026_x_at) / Fold change /veh IGLL1 (11728026_x_at): dose or concentration left out as unconfirmed
Settings: ProbeSet 11719817_x_at; LIST B

## Nc1ccc(-c2cccs2)cc1NC(=O)c1ccc2c(c1)cc(C1CC1)n2CCN1CCOCC1 [ACY-1035]
  RFU, BET1: 86.19 RFU
